Laboratory results reported in patent US20100124555A1, “Compositions and Methods for Treating Pancreatic Tumors” (UNIVERSITE DE LA MEDITERRANEE, priority 2007, published 2010).

What was measured:
[1] = test system: 16D10 epitope on the BSDL/FAPP polypeptide of SOJ-6 cells; test: 16D10 epitope expression on drug-treated cells (immunofluorescence and flow cytometry); type: cell-based, human; conditions: for cell morphology of drug-treated cells: SOJ-6, immunofluorescence; for 16D10 staining by immunofluorescence of drug-treated cells: SOJ-6 on glass slides; for Average (16D10 binding, flow cytometry) / 16D10 epitope expression: SOJ-6 treated with 20 μM cisplatin or 5 μM gemcitabine; for Average (16D10 binding, flow cytometry): control 418.7 +/− 50.5; for 16D10 epitope expression: change versus control
Method: Antibody 16D10 binding to SOJ-6 cells following treatment with chemotherapeutic agents was tested in order to assess whether gemcitabine or cisplatin affect the expression of the 16D10 epitope on the BSDL/FAPP polypeptide. Antibody 16D10 binding was assessed by immunofluorescence and flow cytometry following treatment of SOJ-6 cells with 20 μM cisplatin or 5 μM gemcitabine.
For immunofluorescence, SOJ-6 cells were cultured on glass slides and treated or not with gemcitabine or cisplatin, fixed and incubated in the presence of 16D10 and a secondary antibody coupled to fluorescein. Slides were assessed with fluorescence microscope.

PANC-1 cells = test: MTT cell growth and proliferation assay, PANC-1; type: cell-based, human; conditions: PANC-1, 24 hours, gemcitabine 0 to 10 μM or cisplatin 0 to 40 μM
Method: (§1) Cell proliferation was determined using MTT assay as previously described (Mosmann et al., 1983 J Immunol Methods, 65(1-2):55-63). Briefly, cells were seeded at subconfluence in appropriate complete media containing 10% FCS in 96-well culture plates. Media were replaced for 24 h by fresh media with 10% inactivated FCS, including increasing concentrations of antibodies directed against FAPP (pAbL64, mAbJ28 and mAb16D10). Cells were washed with PBS and incubated with 100 μl of MTT (0.5 mg/ml) in complete media for 3 h, washed with PBS and finally incubated with DMSO for 30 min at 37° C. Cell growth was determined by measuring absorbance at 550 nm using a MR 5000 microplate spectrophotometer. All independent determinations were done in triplicate and compared to control.

SOJ-6 cells [2] = test: MTT cell growth and proliferation assay, SOJ-6; type: cell-based, human; conditions: SOJ-6, 24 hours, gemcitabine 0 to 10 μM or cisplatin 0 to 40 μM
SOJ-6 cells [3] = test: Nuclear staining with DAPI (nuclear fragmentation); type: cell-based, human; conditions: RPMI induced no apoptosis
Method: After treatment with mAb16D10 or cisplatin, cells were washed in ice-cold PBS, fixed and permeablized with 70% ethanol for 5 min at […] and staining with diluted 1/1000 DAPI solution in PBS for 1 min at room temperature. The cells were then washed with PBS. The nuclear morphology of cells was examined by fluorescence microscopy.

[4] = test system: Bcl-2, Bax, caspases 8 and 9, PARP in SOJ-6 cells; test: SDS-PAGE and western blot of apoptosis proteins; type: cell-based, human; conditions: SOJ-6, 24 hours
Method: SOJ-6 cells were grown in 6-well culture plates in RPMI 1640 medium with 10% FCS. At subconfluency, the medium was removed and replaced for 24 hours by fresh RPMI medium with 10% inactivated FCS. SOJ-6 cells were then incubated with mAb16D10 or Cisplatin for 24 hours. At the end of incubation, cells were washed three times with ice-cold PBS (without […] and Mg^++) harvested and pelleted by centrifugation. Pellets were washed twice and lysed at 4° C. in 0.5 ml of lysis buffer (10 mM Tris-HCl pH 7.4, 150 mM NaCl, 1% Triton X-100, 1 mM benzamidine and phosphatase inhibitors). After lysis, homogenates were clarified by centrifugation at 10,000 g for 10 min at 4° C. An aliquot was saved for protein determination using the bicinchoninic acid assay (Pierce, Rockford, Ill.). Proteins (50 μg/lane) in reducing SDS buffer were separated onto 10, 12, or 15% polyacrylamide with 0.1% SDS (according to the molecular weight range of proteins to be separated). After electrophoretic migration, proteins were silver stained. Alternatively, proteins were transferred onto nitrocellulose membranes using a Mini Transblot electrophoretic cell (BioRad, Hercule, Oreg.), and transferred proteins were immunodetected by using appropriate primary and secondary antibodies. After washes, membranes were developed with a chemoluminescent substrate according to the manufacturer's instructions (Roche Diagnostics, Switzerland). In each experiment, a control was included by omitting primary antibodies or by using a non-immune serum.

NK cells = test: NK cell activation (ADCC): CD107 mobilization and IFN-γ production by flow cytometry; type: cell-based, human; conditions: presence of SOJ-6 cells
Method: Thawed purified human NK cells stimulated or not overnight with 100 UI/mL of IL-2 were mixed with SOJ-6 or B221 cell lines at an effector/target ratio equal to 1, alone or in the presence of rec16D10 (30 μg/mL) or rituxan (10 μg/mL). Cells were then incubated for 4 hours at 37° C. in the presence of FITC conjugated anti-CD107 mAbs (Becton Dickinson) and monensin (sigma). After incubation, cells were washed in PBS containing 2 mM EDTA to disrupt cell conjugates and stained for extracellular markers (PC5 conjugated anti-CD56 and PC7 conjugated anti-CD3 purchased from Beckman coulter). Cells were then fixed and permeabilized using IntraPrep reagent (Beckman Coulter). […] Samples were then analysed on FACScanto (Becton Dickinson).
The chimeric antibody rec16D10 (30 μg/ml) was incubated with target SOJ-6 cells together with NK cells, with or without overnight treatment with IL-2 (100 U/ml) (FIG. 19). As a control, the Rituxan antibody (10 μg/ml) was used with target B221 cells. Effector cells and target cells were used at a ratio of: 1/1 (100000 NK/well). Thawed purified NK cells from two donors (NK1 and NK2) were incubated with the antibodies and target cells. Activation of NK cells was examined by virtue of CD 107 staining and IFN-γ secretion. […] Under similar conditions, approximately 30% of NK1 and NK2 cells secreted IFN-γ (vs. less than 16% and 13% in the absence of antibody or with Rituxan in NK1 and NK2 cells, respectively) (FIG. 21).

SOJ-6 cells [5] = test: Apoptosis by caspase activity (CaspACE FITC-VAD-fmk in situ marker); type: cell-based, human; conditions: SOJ-6, 24 hours; 16D10 25 μg/ml, recombinant chimeric 16D10 5 μg/ml
Method: Cells grown in 8-well plates (Polystyrene vessel, BD Falcon) were treated with mAb16D10 or mouse IgM in RPMI with inactivated FCS for 24 hours prior to the addition of CaspACE FITC-VAD-fmk in situ marker (Promega) at a final concentration of 10 μM in the culture medium according to manufacturer's instructions. Then cells were washed in PBS, fixed for 15 minutes in 2% paraformaldehyde, and washed once again. Upon caspase action on FITC-VAD-fmk, apoptotic cells become fluorescent and the number of fluorescent cells was determined in triplicate on collections of 10 fields randomly examined under the fluorescent microscope.

pancreatic cancers = conditions: patients with pancreatic cancer; cited from earlier work
SOJ-6 cells [6] = test: Annexin V / PI apoptosis assay; type: cell-based, human; conditions: antibodies 20 μg/ml, tunicamycin 25 or 50 μg/ml
Method: SOJ-6 cells (20.10^4 cells per well) were seeded onto 24 wells plates 72H before to start the experiment. Cells were incubated either with 20 μg/ml 16D10 IgM, or 20 μg/ml of a further recombinant 16D10 IgG1 antibody which contained the 16D10 variable regions linked fused to a human IgG1 constant region and human kappa light region for the heavy and light chains respectively, 25 μg/ml Tunicamycin or 50 μg/ml Tunicamycin. The AnnexinV/PI stainings were performed after 24H of culture using the AnnexinV-FITC Apoptosis Detection Kit I (BD Pharmingen) according to the manufacturer instructions. Stainings were acquired on a FACScan (Becton Dickinson, San Jose, Calif.) and results were analysed using FlowJo Software.

SOJ-6 cells [7] = test: MTT cell growth and proliferation assay, SOJ-6; type: cell-based, human; conditions: SOJ-6 treated with raft-disrupting drug or glycosphingolipid biosynthesis inhibitor (10 μM), with mAb16D10
Method: as §1

PANC-1 [8] = test: isotype control in indirect immunofluorescence flow cytometry (FL1-H) on PANC-1 cells (no FAPP); main peak near the negative control with a tail to about 100-200 FL1-H; antibody concentration not given; row 'Control -': Mean 4,60
[9] = target: feto-acinar pancreatic protein (FAPP), oncofetal glycoisoform of pancreatic bile salt-dependent lipase (BSDL), on the surface of SOJ-6 human pancreatic tumor cells (human) (UniProt P19835); test: isotype control in indirect immunofluorescence flow cytometry (FL1-H) on SOJ-6 cells; antibody concentration not given; row 'Control -': Median 3,02
PANC-1 [10] = test: isotype control in indirect immunofluorescence flow cytometry (FL1-H) on PANC-1 cells (no FAPP); antibody concentration not given; row 'Control -': Median 3,22
[11] = target: feto-acinar pancreatic protein (FAPP), oncofetal glycoisoform of pancreatic bile salt-dependent lipase (BSDL), on the surface of SOJ-6 human pancreatic tumor cells (human) (UniProt P19835); test: isotype control in indirect immunofluorescence flow cytometry (FL1-H) on SOJ-6 cells; broad histogram from about 2 to about 300 FL1-H, between the negative control and mAb16D10; antibody concentration not given; row 'Control -': Mean 3,43

Sequence of feto-acinar pancreatic protein (FAPP), oncofetal glycoisoform of pancreatic bile salt-dependent lipase (BSDL), on the surface of SOJ-6 human pancreatic tumor cells (human) (P19835 21-753): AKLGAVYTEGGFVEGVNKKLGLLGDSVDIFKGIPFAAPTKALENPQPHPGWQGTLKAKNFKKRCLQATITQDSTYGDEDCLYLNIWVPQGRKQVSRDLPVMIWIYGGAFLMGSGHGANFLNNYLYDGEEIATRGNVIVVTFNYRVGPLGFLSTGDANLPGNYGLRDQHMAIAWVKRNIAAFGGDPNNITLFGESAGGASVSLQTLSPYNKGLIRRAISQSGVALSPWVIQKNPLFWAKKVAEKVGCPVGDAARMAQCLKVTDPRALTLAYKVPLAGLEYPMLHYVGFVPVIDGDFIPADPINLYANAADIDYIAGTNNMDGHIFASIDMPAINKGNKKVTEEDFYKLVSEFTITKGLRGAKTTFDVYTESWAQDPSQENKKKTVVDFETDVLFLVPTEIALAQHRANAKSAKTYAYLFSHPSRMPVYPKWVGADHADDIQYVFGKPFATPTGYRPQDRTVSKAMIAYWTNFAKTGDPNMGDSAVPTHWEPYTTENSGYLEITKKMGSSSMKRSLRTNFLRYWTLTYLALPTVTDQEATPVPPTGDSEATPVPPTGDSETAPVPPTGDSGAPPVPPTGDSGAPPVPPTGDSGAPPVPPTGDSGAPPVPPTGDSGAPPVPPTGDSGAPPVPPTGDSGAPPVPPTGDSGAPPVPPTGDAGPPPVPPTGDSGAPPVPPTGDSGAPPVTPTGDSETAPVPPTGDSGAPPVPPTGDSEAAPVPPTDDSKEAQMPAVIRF

N.N.[Cl][Pt][Cl] [Cisplatin, cis-diaminedichloridoplatinum(II)]
16D10 surface binding of drug-treated cells (flow cytometry, in words) ([1]; SOJ-6): decrease in expression of the 16D10 epitope | cell morphology of drug-treated cells [1]: clear morphological changes | 16D10 staining by immunofluorescence of drug-treated cells [1]: showed staining with 16D10 | Average (16D10 binding, flow cytometry) [1]: 324.6 +/− 26.3 | 16D10 epitope expression [1]: −32.5 | proliferation by MTT assay (PANC-1 cells): dose dependent decrease in proliferation is seen for both cell lines | proliferation by MTT assay (SOJ-6 cells [2]): dose dependent decrease in proliferation is seen for both cell lines | apoptosis observed by DAPI staining (nuclear fragmentation) (SOJ-6 cells [3]): low level of apoptosis | activation of caspase 9 and PARP (immunodetection) [4]: activated

Rituxan: Rituxan antibody used as a control with target B221 cells [reference compound]
NK1 cells secreting IFN-γ (NK cells; donor NK1, IL-2 treated): less than 16% | CD 107-positive staining of NK1 cells (NK cells; donor NK1, IL-2 treated, E/T 1/1, rec16D10 30 μg/ml, Rituxan 10 μg/ml): < 30% | NK2 cells secreting IFN-γ (NK cells; donor NK2, IL-2 treated): < 13% | CD 107-positive staining of NK2 cells (NK cells; donor NK2, IL-2 treated, E/T 1/1, rec16D10 30 μg/ml, Rituxan 10 μg/ml): < 20%

Nc1ccn(C2OC(CO)C(O)C2(F)F)c(=O)n1 (stereo not shown) [Gemcitabine, 4-amino-1-[3,3-difluoro-4-hydroxy-5-(hydroxymethyl)tetrahydrofuran-2-yl]-1H-pyrimidin-2-one]
cell morphology of drug-treated cells [1]: clear morphological changes | 16D10 staining by immunofluorescence of drug-treated cells [1]: showed staining with 16D10 | Average (16D10 binding, flow cytometry) [1]: 419.0 +/− 36.2 | 16D10 epitope expression [1]: 0 | proliferation by MTT assay (PANC-1 cells): relatively resistant to gemcitabine | proliferation by MTT assay (SOJ-6 cells [2]): a decrease in proliferation is seen only in SOJ-6 cells | apoptosis by caspase activity (number of apoptotic cells compared to control) (SOJ-6 cells [5]): induce apoptosis on SOJ-6 cells | activation of caspase 9 and PARP (immunodetection) [4]: activated | improvement in survival at one year compared to untreated patients (pancreatic cancers): 18%

tunicamycin [reference compound]
apoptosis by Annexin V and Annexin V/PI staining (SOJ-6 cells [6]): induced significant levels of apoptosis

N[C@H]1CONC1=O [L-cyclo-serine]
influence on the antiproliferative effect of mAb16D10 (SOJ-6 cells [7]): neither L-cyclo-serine (LCS) (an inhibitor of serine palmitoyltransferase) nor Fumonisin 1 or 2 (both inhibitors of dihydroceramide synthetase) interfered

CCCC[C@@H](C)[C@@H](OC(=O)C[C@@H](CC(=O)O)C(=O)O)[C@H](C[C@@H](C)C[C@H](O)CCCC[C@@H](O)C[C@H](O)[C@H](C)N)OC(=O)C[C@@H](CC(=O)O)C(=O)O [Fumonisin 1, Fumonisin B1]
influence on the antiproliferative effect of mAb16D10 (SOJ-6 cells [7]): neither L-cyclo-serine (LCS) (an inhibitor of serine palmitoyltransferase) nor Fumonisin 1 or 2 (both inhibitors of dihydroceramide synthetase) interfered

CCCCC[C@@H](O)[C@H]1C(=O)O[C@H](C)[C@@H](O)/C=C/C=C/C=C/C=C/C=C(\C)[C@@H](O)C[C@H](O)C[C@H](O)C[C@H](O)C[C@H](O)C[C@H](O)C[C@@H]1O [Filipin]
influence on the antiproliferative effect of mAb16D10 (SOJ-6 cells [7]): decreased

CCCCCCCCCC(=O)NC(CN1CCOCC1)C(O)c1ccccc1 (stereo not shown) [PDMP, Phenyl-2-decanoylamino-3-morpholino-1-propanol]
influence on the antiproliferative effect of mAb16D10 (SOJ-6 cells [7]): impaired the effect of mAb16D10 on SOJ-6 cell proliferation

CCCC[C@@H](C)[C@@H](OC(=O)C[C@@H](CC(=O)O)C(=O)O)[C@H](C[C@@H](C)CCCCCC[C@@H](O)C[C@H](O)[C@H](C)N)OC(=O)C[C@@H](CC(=O)O)C(=O)O [Fumonisin 2, Fumonisin B2]
influence on the antiproliferative effect of mAb16D10 (SOJ-6 cells [7]): neither L-cyclo-serine (LCS) (an inhibitor of serine palmitoyltransferase) nor Fumonisin 1 or 2 (both inhibitors of dihydroceramide synthetase) interfered

IgM mouse SIGMA (antibody)
Mean (PANC-1 [8]): 13 | Median [9]: 19.8 | Median (PANC-1 [10]): 4.61 | Mean [11]: 86.7

methyl-β-cyclodextrin
influence on the antiproliferative effect of mAb16D10 (SOJ-6 cells [7]): decreased | influence on the antiproliferative effect of mAb16D10 (SOJ-6 cells [7]; listed as MBCD): decreases or abolishes the cell growth inhibiting activity of antibody 16D10
